In ChEMBL document CHEMBL4354822, “Ligand-Based Design of Nondimethylphenyl-Diarylpyrimidines with Improved Metabolic Stability, Safety, and Oral Pharmacokinetic Profiles” (J Med Chem, 2019):
pEC50, pIC50: −log10 of the molar value.

How the values were obtained:
[1] = Aqueous solubility of compound at 2 mg measured for 24 hrs by HPLC analysis; type: physicochemical; details: aqueous medium
[2] = Metabolic stability in human liver microsomes at 1 uM measured up to 45 mins in presence of NADPH by LC/MS/MS analysis; type: ADME, Microsome
[3] = Metabolic stability in rat liver microsomes at 1 uM measured up to 45 mins in presence of NADPH by LC/MS/MS analysis; type: ADME, Microsome
[4] = Intrinsic clearance in human liver microsomes assessed per mg protein at 1 uM measured up to 45 mins in presence of NADPH by LC/MS/MS analysis; type: ADME, Microsome; details: read-out: CLH
[5] = Intrinsic clearance in rat liver microsomes assessed per mg protein at 1 uM measured up to 45 mins in presence of NADPH by LC/MS/MS analysis; type: ADME, Microsome; details: microsomes, 0.75 h, 1 µM
[6] = AUC in Sprague-Dawley rat at 5 mg/kg, po via gavage administration measured after 24 hrs by LCMS analysis; type: ADME, organism-based; parameters: time < 24 hr, dose 5 mg/kg, route oral; details: in vivo
[7] = AUCinfinity in Sprague-Dawley rat at 5 mg/kg, po via gavage administration measured after 24 hrs by LCMS analysis; type: ADME, organism-based; parameters: dose 5 mg/kg, route oral, time infinity; details: in vivo
[8] = MRTinfinity in Sprague-Dawley rat at 5 mg/kg, po via gavage administration measured after 24 hrs by LCMS analysis; type: ADME, organism-based; details: in vivo
[9] = Half life in Sprague-Dawley rat at 5 mg/kg, po via gavage administration measured after 24 hrs by LCMS analysis; type: ADME, organism-based; details: in vivo
[10] = Tmax in Sprague-Dawley rat at 5 mg/kg, po via gavage administration measured after 24 hrs by LCMS analysis; type: ADME, organism-based; details: in vivo
[11] = Cmax in Sprague-Dawley rat at 5 mg/kg, po via gavage administration measured after 24 hrs by LCMS analysis; type: ADME, organism-based; parameters: dose 5 mg/kg, route oral; details: in vivo
[12] = Oral bioavailability in Sprague-Dawley rat at 5 mg/kg measured after 24 hrs by LCMS analysis; type: ADME, organism-based; details: in vivo
[13] = AUC in Sprague-Dawley rat at 10 mg/kg, po via gavage administration measured after 24 hrs by LCMS analysis; type: ADME, organism-based; parameters: dose 10 mg/kg, time < 24 hr, route oral; details: in vivo
[14] = AUCinfinity in Sprague-Dawley rat at 10 mg/kg, po via gavage administration measured after 24 hrs by LCMS analysis; type: ADME, organism-based; parameters: dose 10 mg/kg, time infinity, route oral; details: in vivo
[15] = MRTinfinity in Sprague-Dawley rat at 10 mg/kg, po via gavage administration measured after 24 hrs by LCMS analysis; type: ADME, organism-based; details: in vivo
[16] = Half life in Sprague-Dawley rat at 10 mg/kg, po via gavage administration measured after 24 hrs by LCMS analysis; type: ADME, organism-based; details: in vivo
[17] = Tmax in Sprague-Dawley rat at 10 mg/kg, po via gavage administration measured after 24 hrs by LCMS analysis; type: ADME, organism-based; details: in vivo
[18] = Cmax in Sprague-Dawley rat at 10 mg/kg, po via gavage administration measured after 24 hrs by LCMS analysis; type: ADME, organism-based; parameters: dose 10 mg/kg, route oral; details: in vivo
[19] = Oral bioavailability in Sprague-Dawley rat at 10 mg/kg measured after 24 hrs by LCMS analysis; type: ADME, organism-based; details: in vivo
[20] = AUC in Sprague-Dawley rat at 1 mg/kg, iv measured after 24 hrs by LCMS analysis; type: ADME, organism-based; parameters: time < 24 hr, dose 1 mg/kg, route intravenous; details: in vivo
[21] = AUCinfinity in Sprague-Dawley rat at 1 mg/kg, iv measured after 24 hrs by LCMS analysis; type: ADME, organism-based; parameters: dose 1 mg/kg, route intravenous, time infinity; details: in vivo
[22] = MRTinfinity in Sprague-Dawley rat at 1 mg/kg, iv measured after 24 hrs by LCMS analysis; type: ADME, organism-based; details: in vivo
[23] = Half life in Sprague-Dawley rat at 1 mg/kg, iv measured after 24 hrs by LCMS analysis; type: ADME, organism-based; details: in vivo
[24] = Acute toxicity in mouse assessed as mortality at 2 mg/kg, ig measured up to 14 days; type: organism-based; details: in vivo, po, 336 h
[25] = Acute toxicity in mouse assessed as change in body weight at 2 mg/kg, ig measured up to 14 days; type: organism-based; details: in vivo, po, 336 h
[26] = Acute toxicity in mouse assessed as change in behavior at 2 mg/kg, ig measured up to 14 days; type: organism-based; details: in vivo, po, 336 h
[27] = Acute toxicity in mouse assessed as change in brain at 2 mg/kg, ig measured up to 14 days by H and E staining based assay; type: organism-based; details: in vivo, po, 336 h
[28] = Acute toxicity in mouse assessed as change in heart at 2 mg/kg, ig measured up to 14 days by H and E staining based assay; type: organism-based; details: in vivo, po, 336 h
[29] = Acute toxicity in mouse assessed as change in liver at 2 mg/kg, ig measured up to 14 days by H and E staining based assay; type: organism-based; details: in vivo, po, 336 h
[30] = Acute toxicity in mouse assessed as change in lung at 2 mg/kg, ig measured up to 14 days by H and E staining based assay; type: organism-based; details: in vivo, po, 336 h
[31] = Acute toxicity in mouse assessed as change in kidney at 2 mg/kg, ig measured up to 14 days by H and E staining based assay; type: organism-based; details: in vivo, po, 336 h
[32] = system: Human immunodeficiency virus 1; assay: Ratio of EC50 for test compound to EC50 for 4-[4-[[2-(4-cyanoanilino)pyrimidin-4-yl]amino]-3,5-dimethyl-phenyl]benzonitrile against HIV1 3B infected in human MT4 cells incubated for 5 days by MTT assay; type: functional
[33] = Oral bioavailability in Sprague-Dawley rat at 1 mg/kg measured after 24 hrs by LCMS analysis; type: ADME, organism-based; details: in vivo
[34] = system: Human immunodeficiency virus 1; assay: Antiviral activity against HIV1 3B infected in human MT4 cells incubated assessed as reduction in virus-induced cytopathic effect for 5 days by MTT assay; type: functional, organism-based; details: Human immunodeficiency virus 1, 3B, MT4, 120 h
[35] = system: MT4; assay: Cytotoxicity against human MT4 cells assessed as reduction in cell viability incubated for 5 days by MTT assay; type: functional; details: MT4, 120 h
[36] = Selectivity index, ratio of CC50 for human MT4 cells to EC50 for antiviral activity against HIV1 3B infected in human MT4 cells incubated for 5 days by MTT assay; type: toxicity, cell-based; details: MT4 cells (uninfected for CC50; HIV-1 3B infected for EC50)
[37] = system: Human immunodeficiency virus 1; assay: Ratio of EC50 for rilpivirine to EC50 for test compound for antiviral activity against HIV1 harboring reverse transcriptase L100I mutant infected in human MT4 cells assessed as reduction in virus-induced cytopathic effect incubated for 5 days by MTT assay; type: functional
[38] = system: Human immunodeficiency virus 1; assay: Ratio of EC50 for efavirenz to EC50 for test compound for antiviral activity against HIV1 harboring reverse transcriptase L100I mutant infected in human MT4 cells assessed as reduction in virus-induced cytopathic effect incubated for 5 days by MTT assay; type: functional
[39] = system: Human immunodeficiency virus 1; assay: Ratio of EC50 for etravirine to EC50 for test compound for antiviral activity against HIV1 harboring reverse transcriptase L100I mutant infected in human MT4 cells assessed as reduction in virus-induced cytopathic effect incubated for 5 days by MTT assay; type: functional
[40] = system: Human immunodeficiency virus 1; assay: Antiviral activity against HIV1 harboring reverse transcriptase L100I mutant infected in human MT4 cells assessed as reduction in virus-induced cytopathic effect incubated for 5 days by MTT assay; type: functional, organism-based; details: Human immunodeficiency virus 1, MT4, 120 h
[41] = system: Human immunodeficiency virus 1; assay: Antiviral activity against HIV1 harboring reverse transcriptase K103N mutant infected in human MT4 cells assessed as reduction in virus-induced cytopathic effect incubated for 5 days by MTT assay; type: functional, organism-based; details: Human immunodeficiency virus 1, MT4, 120 h
[42] = system: Human immunodeficiency virus 1; assay: Antiviral activity against HIV1 harboring reverse transcriptase Y181C mutant infected in human MT4 cells assessed as reduction in virus-induced cytopathic effect incubated for 5 days by MTT assay; type: functional, organism-based; details: Human immunodeficiency virus 1, MT4, 120 h
[43] = system: Human immunodeficiency virus 1; assay: Antiviral activity against HIV1 harboring reverse transcriptase Y188L mutant infected in human MT4 cells assessed as reduction in virus-induced cytopathic effect incubated for 5 days by MTT assay; type: functional, organism-based; details: Human immunodeficiency virus 1, MT4, 120 h
[44] = system: Human immunodeficiency virus 1; assay: Antiviral activity against HIV1 harboring reverse transcriptase E138K mutant infected in human MT4 cells assessed as reduction in virus-induced cytopathic effect incubated for 5 days by MTT assay; type: functional, organism-based; details: Human immunodeficiency virus 1, MT4, 120 h
[45] = molecular target: Human immunodeficiency virus type 1 reverse transcriptase (Human immunodeficiency virus 1, UniProt Q72547); assay: Inhibition of recombinant wild type HIV1 reverse transcriptase p66/p51 incubated for 40 mins by picogreen dye-based spectrofluorometric analysis
[46] = molecular target: Human immunodeficiency virus type 1 reverse transcriptase (Human immunodeficiency virus 1) (UniProt Q72547); assay: Ratio of IC50 for nevirapine to IC50 for test compound for recombinant wild type HIV1 reverse transcriptase p66/p51

## Cl.N#Cc1ccc(Nc2nccc(Nc3c(F)cc(-c4ccc(C#N)cc4)cc3F)n2)cc1
[1]
  solubility at 24 h: 5.6 µg/mL
[2]
  half-life at 1 µM: 0.527 h
  k el at 0.75 h, 1 µM: 0.000365 s⁻¹
[3]; liver microsomes
  k el at 0.75 h, 1 µM: 0.000262 s⁻¹
[3]; microsomes, 0.75 h, 1 µM
  t1/2: 0.738 h
[4]
  microsomal CLint at 1 µM: 21.9 µL/min/mg
[5]
  CLH: 44.3 µL/min/mg
[6]
  AUC at 24 h: 7890 ng·h/mL
[7]
  AUC(0-inf): 8000 ng·h/mL
[8]
  MRT inf: 8.37 h
[9]
  half-life: 3.23 h
[10]
  Tmax: 5.33 h
[11]
  Cmax: 887 ng/mL
[12]
  bioavailability: 44%
[13]
  AUC at 24 h: 12100 ng·h/mL
[14]
  AUC(0-inf): 12200 ng·h/mL
[15]
  MRT inf: 8.27 h
[16]
  half-life: 3.18 h
[17]
  Tmax: 6.67 h
[18]
  Cmax: 1230 ng/mL
[19]
  bioavailability: 33.6%
[20]
  AUC at 24 h: 3560 ng·h/mL
[21]
  AUC(0-inf): 3640 ng·h/mL
[22]
  MRT inf: 4.69 h
[23]
  half-life: 4.18 h
[24]
  Activity: Non-Toxic
[25]
  Activity: Non-Toxic
[26]
  Activity: Non-Toxic
[27]
  Activity: Non-Toxic
[28]
  Activity: Non-Toxic
[29]
  Activity: Non-Toxic
[30]
  Activity: Non-Toxic
[31]
  Activity: Non-Toxic

## N#Cc1ccc(Nc2nc(Oc3ccc(-c4ccc(C#N)cc4)c(F)c3F)c3sccc3n2)cc1
[32]
  Ratio EC50: 14

## Cc1cc(/C=C/C#N)cc(C)c1Nc1ccnc(Nc2ccc(C#N)cc2)n1.Cl [RILPIVIRINE HYDROCHLORIDE]
[33]
  bioavailability: 32%

## Cc1cc(-c2ccc(C#N)cc2)cc(Cl)c1Oc1ccnc(Nc2ccc(C#N)cc2)n1
[34]
  pEC50: 8.47
[35]
  CC50: > 286000 nM
[36]
  selectivity ratio at 120 h: > 86200
[37]
  Ratio EC50: 2 - 568
[38]
  Ratio EC50: 2 - 568
[39]
  Ratio EC50: 2 - 568
[40]
  pEC50: > 8.43
[41]
  pEC50: > 8.37
[42]
  pEC50: 7.98
[43]
  pEC50: 6.70
[44]
  pEC50: 8.18
[45]
  pIC50: 7.97
[46]
  Ratio IC50: 21 to 109
